In data set [1] the test system is collagen-induced arthritis model in DBA1/J mice. Briefly: Collagen-induced arthritis model. The data set is classed as in vivo. To be noted: 50 and 100 mg/kg IP. An excerpt: In this test, DBA1/J mice (male, 7-8 weeks) were used, with 8 animals per group. Systemic arthritis was induced with bovine collagen type II and CFA, plus an IFA booster injection on day 21.
The results are summarized in FIG. 3, containing graphs of Average Arthritic Score vs. Days of Treatment.

The next data set concerns mice. Briefly: Visible platform test. In kind it is in vivo. To be noted: injected twice a day for two days.
For a further data set, the system named is primary cortical neurons. Briefly: HCA oxidative stress neuroprotection assay (MTT viability).
The test system of another data set is murine Treg. In words: Murine Treg suppression. In kind it is cell-based.
The test system of another data set is Aβ-infused mice. In words: Contextual fear conditioning after Aβ42 infusion. In kind it is in vivo. As for the experimental part: In this test, mice were infused with Aβ42 via cannulas implanted into dorsal hippocampus 15 minutes prior to training. […] Fear learning was assessed 24 hours later.
A further data set addresses Human HDAC6 (Homo sapiens (Human), UniProt Q9UBN7). Briefly: HDAC6 inhibition assay (fluorogenic p53 peptide substrate). In kind it is biochemical. To be noted: for IC50: mean of two experiments (TSA: 9), 10-dose, 3-fold serial dilution from 30 μM, read-out: HDAC6 IC50 (μM) ± SD.
The target of a further data set is Human HDAC1 (Homo sapiens (Human), UniProt Q13547). In words: HDAC1 inhibition assay (fluorogenic p53 peptide substrate). To be noted: read-out: HDAC1 IC50 (μM) ± SD. In kind it is biochemical.
Sequence of Human HDAC1 (Q13547 whole entry): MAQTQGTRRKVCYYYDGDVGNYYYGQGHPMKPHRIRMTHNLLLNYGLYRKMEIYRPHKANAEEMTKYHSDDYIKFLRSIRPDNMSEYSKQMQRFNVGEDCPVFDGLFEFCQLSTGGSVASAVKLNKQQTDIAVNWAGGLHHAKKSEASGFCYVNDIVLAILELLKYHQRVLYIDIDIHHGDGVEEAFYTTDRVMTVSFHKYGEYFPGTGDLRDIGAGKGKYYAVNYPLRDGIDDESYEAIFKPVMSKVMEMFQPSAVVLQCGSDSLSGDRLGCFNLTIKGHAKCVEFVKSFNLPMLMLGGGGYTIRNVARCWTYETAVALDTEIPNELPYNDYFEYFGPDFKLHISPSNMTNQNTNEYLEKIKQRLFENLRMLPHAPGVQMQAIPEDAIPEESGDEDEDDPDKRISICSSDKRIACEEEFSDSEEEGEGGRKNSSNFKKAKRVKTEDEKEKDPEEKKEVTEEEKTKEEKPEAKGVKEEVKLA
The next data set deals with HDAC5 (Homo sapiens (Human), UniProt Q9UQL6). In words: biochemical. To be noted: mean of two experiments; read-out: HDAC5 IC50 (μM) ± SD.
Sequence of HDAC5 (Q9UQL6 whole entry): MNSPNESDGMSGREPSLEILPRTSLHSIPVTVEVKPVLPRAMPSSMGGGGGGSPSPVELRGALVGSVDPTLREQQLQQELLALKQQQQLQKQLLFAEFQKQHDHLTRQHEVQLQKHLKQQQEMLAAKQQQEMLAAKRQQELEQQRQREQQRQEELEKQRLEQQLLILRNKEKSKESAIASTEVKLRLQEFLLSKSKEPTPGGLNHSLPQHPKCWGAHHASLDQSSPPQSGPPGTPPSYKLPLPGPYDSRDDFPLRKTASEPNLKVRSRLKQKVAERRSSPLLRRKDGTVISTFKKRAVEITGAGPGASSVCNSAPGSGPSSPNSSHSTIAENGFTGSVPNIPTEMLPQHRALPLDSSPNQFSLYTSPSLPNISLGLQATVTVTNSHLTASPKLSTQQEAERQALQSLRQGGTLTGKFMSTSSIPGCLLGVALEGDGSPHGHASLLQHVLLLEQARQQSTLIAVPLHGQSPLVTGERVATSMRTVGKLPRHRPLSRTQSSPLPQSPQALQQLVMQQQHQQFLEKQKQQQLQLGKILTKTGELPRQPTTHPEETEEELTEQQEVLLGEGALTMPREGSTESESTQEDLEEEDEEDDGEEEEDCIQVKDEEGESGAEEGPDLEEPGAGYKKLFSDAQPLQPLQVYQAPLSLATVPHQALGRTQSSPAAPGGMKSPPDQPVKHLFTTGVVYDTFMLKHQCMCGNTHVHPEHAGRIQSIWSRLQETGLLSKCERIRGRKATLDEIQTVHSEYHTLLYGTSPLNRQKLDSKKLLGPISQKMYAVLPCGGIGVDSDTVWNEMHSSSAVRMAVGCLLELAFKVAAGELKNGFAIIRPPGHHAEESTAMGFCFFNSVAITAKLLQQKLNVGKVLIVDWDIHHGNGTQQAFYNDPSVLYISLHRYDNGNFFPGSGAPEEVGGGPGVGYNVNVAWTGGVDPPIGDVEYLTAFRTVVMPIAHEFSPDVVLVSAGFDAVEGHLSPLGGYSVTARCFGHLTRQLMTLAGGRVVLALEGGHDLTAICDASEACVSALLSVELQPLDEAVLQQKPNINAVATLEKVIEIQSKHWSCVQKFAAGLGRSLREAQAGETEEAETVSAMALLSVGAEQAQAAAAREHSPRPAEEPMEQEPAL
Another data set concerns the target HDAC2 (Homo sapiens (Human), UniProt Q92769). In words: biochemical.
The test system of the next data set is mice with colitis. Briefly: Colitis in mice. To be noted: treatment begun once colitis had developed. In kind it is in vivo. An excerpt: Studies of autoimmunity also are undertaken. In this case, interruption of existing disease is especially important and HDAC6 targeting can be efficacious without any requirement for additional therapy (in contrast to a need for brief low-dose RPM in the very aggressive, fully MHC-mismatched transplant models). […] These studies are extended by assessing whether deletion of HDAC6 in Tregs (Foxp3/Cre) vs. T cells (CD4=Cre) vs. DC (CD11c-Cre) differentially affect the development and severity of colitis. Similarly, control of colitis is assessed by inducing HDAC6 deletion at varying intervals after the onset of colitis with tamoxifen-regulated Cre.

Another data set deals with HDAC7 (Homo sapiens (Human), UniProt Q8WUI4). In words: HDAC7 inhibition assay.
Sequence of HDAC7 (Q8WUI4 whole entry): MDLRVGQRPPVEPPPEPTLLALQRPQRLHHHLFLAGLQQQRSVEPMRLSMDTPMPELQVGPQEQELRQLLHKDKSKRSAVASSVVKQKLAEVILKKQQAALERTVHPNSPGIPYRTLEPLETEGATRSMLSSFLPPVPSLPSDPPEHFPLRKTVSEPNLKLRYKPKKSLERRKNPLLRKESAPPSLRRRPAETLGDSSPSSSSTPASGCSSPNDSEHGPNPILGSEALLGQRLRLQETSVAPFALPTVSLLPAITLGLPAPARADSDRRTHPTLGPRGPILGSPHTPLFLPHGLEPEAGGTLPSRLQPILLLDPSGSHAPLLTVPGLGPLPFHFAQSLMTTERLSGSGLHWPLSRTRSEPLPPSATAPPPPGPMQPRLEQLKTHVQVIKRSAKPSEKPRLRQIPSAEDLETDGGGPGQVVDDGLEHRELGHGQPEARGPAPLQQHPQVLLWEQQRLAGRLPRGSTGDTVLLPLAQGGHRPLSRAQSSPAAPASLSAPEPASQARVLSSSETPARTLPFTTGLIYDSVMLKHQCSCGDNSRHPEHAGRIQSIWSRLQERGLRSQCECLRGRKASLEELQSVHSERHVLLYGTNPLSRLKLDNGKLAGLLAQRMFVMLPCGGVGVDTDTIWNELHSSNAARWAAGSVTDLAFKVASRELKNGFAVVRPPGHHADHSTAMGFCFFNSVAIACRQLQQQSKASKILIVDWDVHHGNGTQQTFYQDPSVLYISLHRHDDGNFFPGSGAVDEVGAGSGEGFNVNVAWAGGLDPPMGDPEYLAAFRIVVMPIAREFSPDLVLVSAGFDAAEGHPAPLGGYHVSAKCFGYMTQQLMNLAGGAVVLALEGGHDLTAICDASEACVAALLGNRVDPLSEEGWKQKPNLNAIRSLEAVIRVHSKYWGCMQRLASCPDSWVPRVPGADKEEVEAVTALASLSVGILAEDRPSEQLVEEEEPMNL
Setting [2] is: mean of two experiments (TSA: 9), 10-dose, 3-fold serial dilution from 30 μM.

Where two headings read alike, the source gives them in different places. Some results are limits rather than exact numbers.

Sequence of Human HDAC6 (Q9UBN7 whole entry): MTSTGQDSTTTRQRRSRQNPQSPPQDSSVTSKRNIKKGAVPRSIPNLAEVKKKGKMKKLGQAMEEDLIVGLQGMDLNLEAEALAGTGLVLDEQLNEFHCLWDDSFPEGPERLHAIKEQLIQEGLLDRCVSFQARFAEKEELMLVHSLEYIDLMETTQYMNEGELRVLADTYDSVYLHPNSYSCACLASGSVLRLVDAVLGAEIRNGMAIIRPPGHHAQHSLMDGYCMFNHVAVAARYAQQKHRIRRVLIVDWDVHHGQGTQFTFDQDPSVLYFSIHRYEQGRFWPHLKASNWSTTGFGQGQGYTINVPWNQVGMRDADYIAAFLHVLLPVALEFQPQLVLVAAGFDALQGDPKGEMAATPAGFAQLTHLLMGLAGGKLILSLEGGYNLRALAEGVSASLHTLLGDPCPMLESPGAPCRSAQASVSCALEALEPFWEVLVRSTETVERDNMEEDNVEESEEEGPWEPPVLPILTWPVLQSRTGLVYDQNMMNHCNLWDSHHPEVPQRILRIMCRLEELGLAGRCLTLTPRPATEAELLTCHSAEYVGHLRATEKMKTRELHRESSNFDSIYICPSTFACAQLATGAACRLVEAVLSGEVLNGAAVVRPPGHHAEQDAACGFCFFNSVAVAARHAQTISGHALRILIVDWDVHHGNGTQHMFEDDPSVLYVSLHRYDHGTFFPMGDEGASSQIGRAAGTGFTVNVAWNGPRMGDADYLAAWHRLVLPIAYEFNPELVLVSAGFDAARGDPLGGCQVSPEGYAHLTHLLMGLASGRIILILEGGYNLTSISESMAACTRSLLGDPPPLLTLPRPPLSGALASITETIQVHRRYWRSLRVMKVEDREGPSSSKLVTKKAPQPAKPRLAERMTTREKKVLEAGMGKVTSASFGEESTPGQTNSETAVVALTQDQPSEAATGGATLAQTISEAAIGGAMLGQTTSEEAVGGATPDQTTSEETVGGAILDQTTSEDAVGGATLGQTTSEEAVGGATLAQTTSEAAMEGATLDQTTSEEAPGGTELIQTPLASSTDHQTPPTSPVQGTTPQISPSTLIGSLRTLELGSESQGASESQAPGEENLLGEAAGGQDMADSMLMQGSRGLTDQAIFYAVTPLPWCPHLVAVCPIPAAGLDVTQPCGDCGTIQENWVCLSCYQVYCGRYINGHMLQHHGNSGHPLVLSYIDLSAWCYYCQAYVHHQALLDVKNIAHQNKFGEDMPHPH
Sequence of HDAC2 (Q92769 whole entry): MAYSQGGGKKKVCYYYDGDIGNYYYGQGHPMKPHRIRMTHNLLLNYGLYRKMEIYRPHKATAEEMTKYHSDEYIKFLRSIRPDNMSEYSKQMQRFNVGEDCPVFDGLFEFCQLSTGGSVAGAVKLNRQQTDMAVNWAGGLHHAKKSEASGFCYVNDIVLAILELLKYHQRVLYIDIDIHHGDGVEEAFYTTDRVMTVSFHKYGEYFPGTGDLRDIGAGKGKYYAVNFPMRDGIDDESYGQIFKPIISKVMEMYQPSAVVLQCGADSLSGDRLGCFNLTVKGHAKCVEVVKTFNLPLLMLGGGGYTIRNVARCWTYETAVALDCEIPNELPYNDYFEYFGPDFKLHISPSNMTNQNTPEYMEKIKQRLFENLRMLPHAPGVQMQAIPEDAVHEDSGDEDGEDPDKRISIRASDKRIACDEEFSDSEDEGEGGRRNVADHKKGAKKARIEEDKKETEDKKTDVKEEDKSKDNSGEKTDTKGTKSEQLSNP

Regarding `CN1CCc2c(c3ccccc3n2Cc2ccc(C(=O)NO)cc2)C1` [Compound 6, N-Hydroxy-4-(2-methyl-1,2,3,4-tetrahydro-pyrido[4,3-b]indol-5-ylmethyl)benzamide], the body weight entry in [1] is recorded as “No loss of body weight”. Besides, the “effects on motor, sensorial, or motivational skills” value in the data set with mice is recorded as “no effects”. The “toxicity to neurons when tested alone” value in the data set on primary cortical neurons (alone (no HCA), all concentrations shown) was “no toxicity”. Moreover, in the data set with primary cortical neurons (with HCA 5 mM, 24 h), the “concentration at which dose-dependent protection against HCA-induced neuronal cell death starts” value was 5 µM. The “concentration enhancing murine Treg suppression” value in the data set on murine Treg is on record as “greater than 100 μM”. In the data set on Aβ-infused mice (during the memory experiments), the “signs of overt toxicity (food and liquid intake, weight loss, locomotion, exploratory behavior)” value is “no signs of overt toxicity”. In the data set on Aβ-infused mice (vehicle-infused mice, 25 mg/kg ip), the “freezing response (contextual fear conditioning)” value was “no effect”.
Consider `CN1CCc2c(n(Cc3ccc(C(=O)NO)cc3)c3ccccc23)C1` [Compound 7, N-Hydroxy-4-(2-methyl-1,2,3,4-tetrahydro-b-carbolin-9-ylmethyl)benzamide], for which, at Human HDAC6 (HDAC1 IC50/HDAC6 IC50), the “selectivity for HDAC6 against HDAC1” value is on record as 3700 fold.
Broadly, the IC50 is the midpoint of a concentration-inhibition curve. Turning to `O=C(CCn1c2ccccc2c2ccccc21)NO` [Compound 8, 3-Carbazol-9-yl-N-hydroxy-propionamide], the IC50 was more than 30 µM on Human HDAC1 (setting [2]) and 1.59 ± 0.08 µM at Human HDAC6.
With `O=C(CCCCn1c2ccccc2c2ccccc21)NO` [Compound 9, 5-Carbazol-9-yl-pentanoic acid hydroxyamide], the IC50 at Human HDAC1 is 12.8 ± 0.7 µM; at Human HDAC6, 2.63 ± 0.04 µM.
In the case of `O=C(CCCCCCn1c2ccccc2c2ccccc21)NO` [Compound 10, 7-Carbazol-9-ylheptanoic acid hydroxyamide], the IC50 on Human HDAC1 was 0.204 ± 0.087 µM; on Human HDAC6, 0.006 ± 0.002 µM.
Consider `O=C(NO)n1c2ccccc2c2ccccc21` [Compound 13, Carbazole-9-carboxylic acid hydroxyamide], for which the IC50 on Human HDAC1 (setting [2]) and at Human HDAC6 was more than 30 µM in each case.
For the compound `O=C(CCCCCCC(=O)Nc1ccc([C@H]2O[C@@H](CSc3nc(-c4ccccc4)c(-c4ccccc4)o3)C[C@@H](c3ccc(CO)cc3)O2)cc1)NO` [Tubacin], the 50% inhibitory concentration (IC50) on HDAC5 was determined as 3.35 ± 0.03 µM; at HDAC2 it was 6.27 ± 0.29 µM; on HDAC7, 9.7 ± 1.8 µM. In addition, in the data set with mice with colitis, the “rescue of mice with established colitis” value is “able to rescue mice”.

The values are drawn from patent US8748451B2, “HDAC inhibitors and therapeutic methods of using same” (The Board of Trustees of the University of Illinois, priority 2009, dated 2014).
